{
  "source": "patent US7052672B2",
  "about": "“Stabilized radiopharmaceutical compositions” (GE Healthcare Limited, priority 2000, dated 2006)",
  "key": {"[1]": {"conditions": "paraben with M=H; at 25° C.; cited from earlier work"}, "[2]": {"test": "13C NMR investigation of the reaction between ascorbic acid and methylparaben", "assay_type": "physicochemical", "description": "Small portions of powdered sodium hydroxide were added with agitation to adjust the pH. At 3 defined pH's (pH 7.5, 8.8 and 9.6), a representative aliquot (0.5 cm^3) was transferred to an NMR tube. The 3 sampled reaction mixtures were monitored daily for one week by ^13C NMR When not being monitored, the mixtures were stored at room temperature protected from light. At the end of the monitoring period a small quantity of methanol was added to the solution to confirm that, if hydrolysis had occurred, the ^13C NMR signal for any methanol produced by transesterification would have been well separated from that for the initial methyl ester resonance.\nThe ^13C NMR spectra were obtained using a JEOL EX270 NMR spectrometer with a broad-band tuneable probe operating at a frequency of 67.94 MHz. The data for each spectrum was acquired over a period of about 30 min.\nAn aliquot (0.5 cm^3) of the colourless solution was removed and monitored by ^13C NMR spectroscopy. As part of the monitoring process the sample was placed in a Bruker AM250 NMR spectrometer after 29 hours and its ^13C NMR spectrum accumulated over a period of 16 hours. […] A small quantity of methanol was then added to the sample as a reference peak."}},
  "data": [
    {"compound": "CCOC(=O)c1ccc(O)cc1", "note": "[ethylparaben, Ethylparaben]", "values": [
      {"measurement": "solubility in water", "setting": "[1]", "result": "0.070% w/w at 25° C.,"}
    ]},
    {"compound": "COC(=O)c1ccc(O)cc1", "note": "[methylparaben, Methylparaben]", "values": [
      {"measurement": "additional components from interaction of ascorbic acid and methylparaben (13C NMR)", "setting": "[2]; Experiment B, pH 9.5, spectrum started after 29 hours, accumulated over 16 hours", "result": "no significant quantities of any additional components had been produced"},
      {"measurement": "formation of methanol from hydrolysis of methylparaben (13C NMR)", "setting": "[2]; Experiment B, pH 9.5, with ascorbic acid, after 29 hours, accumulated 16 hours", "result": "no evidence for the formation of any methanol"},
      {"measurement": "reaction with ascorbic acid or hydrolysis (13C NMR)", "setting": "[2]; even at pH approximately 9.6 after 7 days", "result": "no evidence was found from ^13C NMR studies for any significant reaction between ascorbic acid and methylparaben, or any significant hydrolysis"}
    ]}
  ]
}
